Experimental data: publication PMC7226075, “A Novel Serine Protease Inhibitor PE-BBI Ameliorates Cockroach Extract-Mediated Airway Epithelial Barrier Dysfunction” (Biomolecules, 2020)
“Also recorded” adds a separate entry of the source.

Experiments:
[1] = system: 16HBE cell surface TLP activity; assay: 16HBE cell surface TLP activity assay; type: cell-based, human; conditions: polarised 16HBE, inhibitor 50 µM, Boc-QAR-NH2Mec 50 µM apical, 1 h continuous, λex 380/λem 460 nm; n = 7, mean ± SEM
Protocol: Studies were performed using a SV-40-transformed human bronchial epithelial cell line (16HBE14o^-). The 16HBE cells were grown on collagen-coated T75 flasks (Corning) using bronchial epithelial growth medium (BEGM) (Lonza), in a humidified cell culture incubator supplemented with 5% CO2. After trypsinization, cells (5 × 10^5 cells/cm^2) were seeded onto semipermeable transwell filters (Corning) in BEGM and allowed to grow at liquid–liquid interface for 2 days then switched to DMEM/F-12 medium supplemented with 2% (v/v) Ultroser G (Pall-BioSpera) for a further 2 days (liquid–liquid interface), at which point cultures were exposed to air–liquid interface conditions for a further 5–7 day period, whereupon experiments were conducted.
Polarised 16HBE cells grown on transwell semi-permeable filters were used to assess cell surface TLP activity. Apical cell-surface (membrane-attached) proteolytic activity was measured in stringently washed (using PBS) cells via direct addition of a fluorogenic peptide substrate (50 µM Boc-QAR-–NH2Mec) to the apical compartment with continuous measurement of the formation of –NH2Mec (at λex 380 nm and λem 460 nm) over a 1 h period. Surface activity was determined in the presence and absence of protease inhibitors (GM, pLR-HL or PE-BBI) which were added at a final concentration of 50 µM.

[2] = system: cockroach extract (CRE) trypsin-like protease (TLP) activity; assay: Inhibition of CRE trypsin-like protease (TLP) activity, fluorogenic peptide substrate-based assay; type: biochemical, German cockroach; conditions: Boc-QAR-NH2Mec 50 µM, λex 380/λem 460 nm, 37 °C, 100 μL, inhibitors 0.01–10 μM, four-parameter logistic fit; mean (95% CI) in Figure 1B, n ≥ 4
Protocol: Whole-body German cockroach extract was sourced from Greer Laboratories (USA). All other reagents were obtained from Sigma-Aldrich unless otherwise indicated.
(§1) Cleavage of the fluorogenic peptide substrate Boc-QAR-NH2Mec (50 µM final concentration) (R&D Systems) was used to assay TLP activity with the rate of substrate hydrolysis continuously recorded at λex 380 nm and λem 460 nm using a FLUOstar Optima microplate reader (BMG Labtech). All inhibition assays were performed in microtitre plates maintained at 37 °C in a final volume of 100 μL. Curve fitting and pIC50 (-logIC50) determinations were carried out by fitting to a four-parameter logistic equation (GraphPad Prism).

[3] = system: 16HBE cells; assay: Cell viability assay (RealTime-Glo MT), submerged 16HBE cells; type: cell-based, human; conditions: CRE 16.5 µg protein/well, 24 h, inhibitor 50 µM, n = 6
Protocol: Cell viability was measured in submerged 16HBE cells using the non-lytic and homogeneous RealTime-Glo MT Cell Viability Assay (Promega) as per the manufacturer’s instructions.

[4] = system: BEAS-2B cells; conditions: ref [13], cited from earlier work
[5] = system: recombinant trypsin; assay: Inhibition of recombinant trypsin, fluorogenic peptide substrate-based activity assay; type: biochemical; conditions: Boc-QAR-NH2Mec 50 µM, λex 380/λem 460 nm, 37 °C, 100 μL, inhibitors 0.01–10 μM, four-parameter logistic fit; mean (95% CI) in Figure 1B, n ≥ 4
Protocol: as §1

CCOC(=O)c1ccc(OC(=O)CCCCCN=C(N)N)cc1.CS(=O)(=O)O [GM, gabexate mesylate]
Effect on 16HBE cell surface TLP activity [1]: significantly reduced
pIC50 (-logIC50) vs CRE TLP activity [2]: ~ 6.7
Rescue of CRE-induced cell damage (viability) [3]: failed to do so; also recorded: trend towards modest protection of cells by GM, and pLR-HL, but this was not statistically significant
CRE-induced airway epithelial cell damage in presence of GM ([4]; previous study): ameliorates CRE-induced airway epithelial cell damage
CRE-mediated cell damage and inflammation in presence of GM [4]: reduced CRE-mediated cell damage and inflammation
pIC50 (-logIC50) vs recombinant trypsin [5]: 6.76
